Key:
EGFR = EGFR tyrosine phosphorylation, immunoprecipitation and Western blot in PC12 cells; type: cell-based, rat; conditions: indicated doses for 10 min; 1 μM for indicated times
Method: Immunoprecipitation was performed as previously described (Daub et al., 1997). In brief, cells were washed with ice-cold PBS and lysed with lysis buffer (50 mM HEPES pH 7.5, 150 mM NaCl, 1% Triton X-100, 1 mM EDTA, 10% glycerol) containing protease inhibitors (0.5 mM PMSF, 1 μg/ml leupeptin and 5 μg/ml aprotinin) and phosphatase inhibitors (30 mM NaF, 1 mM Na3VO4 and 30 mM Na4O7P2). The cell lysates were incubated for 1 hr at 4° C. After centrifugation (12,000×g for 15 min), equal amounts of soluble extract were incubated for 4 hr, with 5 μg of anti-EGFR antibody and 30 μl of resin volume of immobilized protein G For gel electrophoresis, the precipitates were dissolved in Laemmli sample buffer.
FIGS. 5C and 5D, PC12 cells were stimulated with the indicated doses of leumorphin for 10 min (C) or with 1 μM of leumorphin for the indicated times (D). […] Cell lysates were subjected to Western blot analysis after immunoprecipitation with EGFR antibodies. Tyrosine-phosphorylated EGFRs were detected by immunoblotting with phosphotyrosine antibodies. The amounts of the precipitated EGFRs were monitored by reprobing the same blot with EGFR antibodies. […] In FIG. 5G, PC12 cells were preincubated with 1 μM AG1478 or 5 μM PP2 for 20 min and then stimulated with 1 μM leumorphin for 10 min. Phosphorylation of AKT and ERK was detected by Western blot analysis as in FIG. 4F. C-E,

AKT and ERK [1] = experiment: AKT and ERK phosphorylation in HEK-293 cells that do not express the KOR; type: cell-based; conditions: data not shown
PC12 cells [2] = experiment: Competition binding assay of 125I-labeled leumorphin in PC12 cells; set-up: species or system rat
Method: Ligand binding analysis was performed as previously described (Bae et al., 2004). Briefly, PC12 cells were seeded at a density of 4×10^5 cells/well into a 12-well plate and cultured overnight. After incubating the cells in blocking buffer (33 mM HEPES (pH 7.5) and 0.1% BSA in RPMI 1640) for 2 hr, 25 pM of ^125I-labeled leumorphin dissolved in binding buffer (PBS containing 0.1% BSA) was added to the cells in the absence or presence of unlabeled ligands and incubated for 3 hr at 4° C. The samples were then washed five times with ice-cold binding buffer, and 500 μl of 1 N NaOH was added to each well. After 10 min at room temperature, the lysates were collected and counted using a gamma counter.
We investigated the possibility that leumorphin might have another binding site(s), in addition to the binding site for the KOR in PC12 cells. That is, an inhibition of [^125I]leumorphin binding in PC12 cells was investigated. PC12 cells were treated with various concentrations of unlabeled leumorphin, (−)-U-50488 and nor-BNI in the presence of ^125I-labeled leumorphin (25 pM) for 3 hr at 4° C. Specifically bound ^125I-labeled leumorphin was measured as described in “Materials and Methods”. For this purpose, we performed competition binding assay of ^125I-labeled leumorphin with unlabeled-agonists, leumorphin and (−)-U-50488, and an antagonist, nor-BNI.

AKT and ERK [3] = type: cell-based, rat
PC12 cells [4] = experiment: DNA ploidy analysis (FACS, sub-Go/Gl) in serum-deprived PC12 cells; type: cell-based, rat; conditions: leumorphin 1 μM, 24 hr, serum deprivation; 35.7±2.2% without leumorphin
Method: Cells were suspended in PBS containing 5 mM EDTA and fixed in 100% ethanol. RNase A (50 μg/ml) was added to the suspended cells, and the cells were incubated at room temperature for 30 min. Propidium iodide (2 μg/ml) was added before reading. DNA contents of the cells were analyzed using a FACScan flow cytometer (Becton Dickinson, Franklin Lakes, N.J.), which was also used to determine the percentage of cells in the different phases of the cell cycle.
(§1) In FIG. 6A, Fragmentation of DNA in the nucleus was detected by a fluorescent TUNEL apoptosis assay. TUNEL stainings are shown in a-c, PI stainings are shown in d-f, and the merged images are presented in g-i. […] Each bar represents a fold increase of TUNEL-positive population of cells after treatment as indicated in serum-deprived condition versus those in serum-growing condition. In FIG. 6C, in order to analyze DNA ploidy, cells were fixed with ethanol, and FACS analysis was performed as described in “Materials and Methods”. In FIG. 6D, caspase-3 activity was measured by using a specific fluorogenic substrate of caspase-3 (Ac-DEVD -AMC) as described in “Materials and Methods”.

PC12 cells [5] = experiment: TUNEL apoptosis assay in serum-deprived PC12 cells; type: cell-based, rat; conditions: leumorphin 1 μM, 24 hr
Method: TUNEL assay was performed according to the manufactures' instruction (Promega Corp.). Briefly, cells on coverslips were fixed with 4% paraformaldehyde for 30 min after stimulation, washed with PBS, permeabilized with 0.2% Triton X-100 for 5 min, rinsed with PBS, and were incubated with 25 μL TUNEL reaction mixture (containing enzyme, nucleotides, and fluorescein-dUTP) in a humidified atmosphere at 37° C. for 1 hr. To observe nuclear morphology, cells were counterstained with 2 μg/ml propidium iodide. Following these incubations, coverslips were rinsed with PBS three times and analyzed under conforcal microscopy We captured images which had at least 100 cells and used five different images from three independent experiments for statistic analysis.
It has been reported that in PC12 cells apoptosis can be induced by serum deprivation, which mimics the fluctuations in the supply of growth factors (Batistatou et al., 1993). […]
In FIG. 6A, Fragmentation of DNA in the nucleus was detected by a fluorescent TUNEL apoptosis assay. […] In FIG. 6D, caspase-3 activity was measured by using a specific fluorogenic substrate of caspase-3 (Ac-DEVD -AMC) as described in “Materials and Methods”.

PC12 cells [6] = experiment: MTT conversion assay of cell viability under serum deprivation; type: cell-based, rat
caspase-3 = experiment: Caspase-3 enzymatic activity in PC12 cell lysates; type: cell-based, rat; conditions: leumorphin 1 μM, 24 hr
Method: PC12 cell lysates were centrifuged at 1,000×g for 10 min. Equal amount of supernatant (20 μg protein) was diluted in buffer containing 100 mM Hepes, 10% sucrose, 5 mM dithiothreitol, […], and 0.1% CHAPS (pH 7.25), and was added to each well of a 96-well plate containing 50 μM DEVD-aminomethylcoumarin (AMC). After incubation at 37° C. for 1 hr, the cleaved free AMC was detected using a fluorospectrophotometer (excitation of 355 nm, emission of 460 nm).
as §1

KOR = target: T1, KOR (Rattus norvegicus, UniProt P34975); type: cell-based; conditions: agonist 1 μM, 10 min, Ro-20-1724 pretreatment
T1 construct: confirming that the KOR ligands we used have proper activities and that functional KOR is expressed in PC12 cells; endogenous in cells; host or cells: PC12 (rat pheochromocytoma)
T1 sequence (P34975 whole entry): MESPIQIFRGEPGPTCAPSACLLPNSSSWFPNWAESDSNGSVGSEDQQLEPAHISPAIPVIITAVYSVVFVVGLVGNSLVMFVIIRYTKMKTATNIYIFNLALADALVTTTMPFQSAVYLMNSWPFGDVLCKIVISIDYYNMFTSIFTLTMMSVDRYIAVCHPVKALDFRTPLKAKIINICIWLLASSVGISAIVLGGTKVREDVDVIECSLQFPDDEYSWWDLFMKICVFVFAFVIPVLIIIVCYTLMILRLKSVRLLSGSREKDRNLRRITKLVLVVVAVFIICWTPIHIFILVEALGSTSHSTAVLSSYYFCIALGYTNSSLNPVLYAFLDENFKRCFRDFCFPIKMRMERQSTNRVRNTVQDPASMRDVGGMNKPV

leumorphin
tyrosine phosphorylation of EGFR (EGFR): induced tyrosine phosphorylation of EGFR in dose- and time-dependent manner
phosphorylation of AKT and ERK in HEK-293 cells (AKT and ERK [1]): specifically induced phosphorylation of AKT and ERK
concentration up to which the inhibitory extent continued to increase (PC12 cells [2]): 10 µM
replacement of labeled leumorphin (PC12 cells [2]): completely replaced
phosphorylation of AKT and ERK (AKT and ERK [3]): specifically induced phosphorylation of both AKT and ERK
sub-Go/Gl area, indicative of the apoptotic population (PC12 cells [4]): 25.8±1.8%
population of TUNEL-positive cells increased by serum deprivation (PC12 cells [5]): significantly reduced
cell viability (MTT conversion, percentage of surviving cells) (PC12 cells [6]): specifically enhanced
dose- and time-dependence of enhancement of cell viability (PC12 cells [6]): dose-(FIG. 1D) and a time-dependent (FIG. 1E) manner
activity of caspase-3 elevated by serum-deprivation (caspase-3): decreased
effect on forskolin-induced increase of cAMP contents (KOR): inhibitory effect
